Test results published in patent US20260232682A1, “GSPT1 DEGRADER COMPOUNDS” (Captor Therapeutics S.A., priority 2023, published 2026).

Legend:
[1] = target: T1, [IKZF2 ZF2]-[compound]-[CRBN/DDB1] ternary complex (Homo sapiens, UniProt Q96SW2+Q9UKS7); experiment: AlphaLISA assay for off-target recruitment detection, IKZF2 ZF2; assay type: binding; details: 1 μM compound; normalized to Helios modulator; read-out: Normalized ternary complex response, IKZF2 ZF2
T1 construct: IKZF2 ZF2
In short: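 Neo-substrate with 40 μg/ml donor beads and 200 nM 6×His-CRBN/DDB1 with 40 μg/ml anti-His acceptor beads were each prepared in PBS pH 7.4 with Tween-20 and 1 mM DTT, preincubated 30 min at RT, then mixed. Compounds at 2% DMSO were incubated 30 min at 25 °C, read at 680/615 nm, and normalised between DMSO background and reference glue maximum.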

KG-1 cells = experiment: Cell viability CTG assay, KG-1; assay type: cell-based; details: Homo sapiens, 72 hours treatment, read-out: KG-1 Geomean absolute IC50
Method: (§1) The effect of selected compounds of the invention on cell viability in various cell lines was investigated using the Cell Viability—CTG Assay Protocol below.
(§2) Hep3B, Hep3B GSPT1 G575N mut., Kelly, KG-1 and NCI-H929 cells were maintained in respective cell medium (see Table 5, below). Cells were seeded in appropriate density (see Table 6, below) onto 384-white plates (Greiner, cat. no. 781080 or 781098) and incubated overnight (Hep3B, Hep3B GSPT1 G575N, Kelly) or treated with compounds immediately after seeding (KG-1, NCI-H929). Tested compounds and DMSO (vehicle control) were dispensed to the plates using Echo 555 Liquid Handler. 12 data-point compound titration curve with concentrations ranging from 50 μM to 1 nM was used. Final DMSO concentration was kept constant at 0.25% v/v across the assay plate. After 72 h incubation (37° C., 5% CO2), cell viability was assessed using CellTiter-Glo® assay kit (Promega, cat. no G7573). Luminescence was measured using CLARIOstar multimode plate reader (BMG LABTECH). The raw data (the relative luminescence unit values, RLU) were uploaded under the relevant protocol and analysed in CDDVault data management platform. Luminescence (RLU) values were normalized to the controls, and reported absolute IC50 values were calculated in CDDVault using non-linear regression and appropriate equations.

Kelly cells = experiment: Cell viability CTG assay, Kelly; assay type: cell-based; details: 72 hours treatment, read-out: Kelly Geomean absolute IC50
Method: as §1, §2

NCI-H929 cells = experiment: Cell viability CTG assay, NCI-H929; assay type: cell-based; details: Homo sapiens, 72 hours treatment, read-out: NCI-H929 Geomean absolute IC50
Method: as §1, §2

Hep3B cells = experiment: Cell viability CTG assay, Hep3B; assay type: cell-based; details: Homo sapiens, 72 hours treatment, read-out: Hep3B Geomean absolute IC50
Method: as §1, §2

[2] = test system: Hep3B GSPT1 G575N mut. cells; experiment: Cell viability CTG assay, Hep3B GSPT1 G575N mut.; assay type: cell-based; details: Homo sapiens, 72 hours treatment, read-out: Hep3B GSPT1 G575N Geomean absolute IC50
Method: as §1, §2

[3] = Chemical stability in MV-4-11 medium; details: 37° C.
Method: Next, 500 μL of each solution was transferred to the 96-deep-well plate. Three replicates for each compound were performed. Plate was afterwards incubated at 37° C. with shaking (220 rpm). 50 μL of sample were withdrawn for the each timepoint (0, 1, 3, 6, 24, 48, 72, and 168 hours) and immediately mixed with 50 μL of acetonitrile. Next, samples were centrifuged at 3900 rpm, 10° C. for 20 minutes. 40 μL of supernatant was diluted with 120 μL of acetonitrile containing internal standard (IS) (10 μM), mixed, and analyzed by LC-MS/MS.
Thermo Fisher Scientific Altis+ coupled with a Vanquish system were used for UHPLC-MS/MS analysis. Analytes were separated on a Kinetex XB-C18 2.6 μm, 50×2.1 mm column, using gradient of water with 0.1% (v/v) formic acid (solvent A) and acetonitrile with 0.1% (v/v) formic acid (solvent B): 0.0 min 5% B, 0.5 min 5% B, 1.0 min 70% B, 3.0 min 95% B, 3.5 min 95% B, 3.7 min 5% B, 5 min 5% B. The mobile phase flow rate was set to 0.3 mL/min and the column was kept in 40° C. 1 μL of samples were injected. The MS/MS analysis was performed using SRM mode in positive ionization. Source parameters were set as follow: Ion Source Type H-ESI, Spray Voltage 3800 V, Sheath Gas 50 Arb, Aux Gas 10 Arb, Sweep Gas 1 Arb, Ion Transfer Tube Temp 325° C., Vaporizer Temp 350° C., Collision Gas Pressure 1.5 mTorr, Q1/Q3 Resolution (FWHM) 0.7. Three transitions were monitored for each analyte and for the internal standard:
Quantitation was based on the peak area ratio between the test compound and IS. The amount of compound remaining in the sample was calculated as follow:
The slope of logarithmic curve of percent remaining versus time has been used for calculation of half-life (t_half). First, the elimination constant (k) was calculated using the equation:
Next, half-life (t_half) was calculated using equation:

T1 sequence (Q9UKS7 140-162 limits assumed): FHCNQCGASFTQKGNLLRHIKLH
T1 sequence (Q96SW2 whole entry): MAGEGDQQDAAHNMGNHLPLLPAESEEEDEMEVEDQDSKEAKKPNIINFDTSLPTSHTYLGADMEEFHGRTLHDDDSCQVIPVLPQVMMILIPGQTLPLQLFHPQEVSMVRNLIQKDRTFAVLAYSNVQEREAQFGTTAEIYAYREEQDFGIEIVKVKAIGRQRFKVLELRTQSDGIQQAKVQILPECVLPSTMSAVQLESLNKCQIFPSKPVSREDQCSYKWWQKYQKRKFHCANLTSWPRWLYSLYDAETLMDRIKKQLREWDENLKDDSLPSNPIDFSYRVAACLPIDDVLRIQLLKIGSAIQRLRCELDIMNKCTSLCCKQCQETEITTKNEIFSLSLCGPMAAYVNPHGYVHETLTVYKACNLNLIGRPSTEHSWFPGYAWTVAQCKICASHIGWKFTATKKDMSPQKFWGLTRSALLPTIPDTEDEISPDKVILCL
T1 sequence (Q16531 whole entry partner): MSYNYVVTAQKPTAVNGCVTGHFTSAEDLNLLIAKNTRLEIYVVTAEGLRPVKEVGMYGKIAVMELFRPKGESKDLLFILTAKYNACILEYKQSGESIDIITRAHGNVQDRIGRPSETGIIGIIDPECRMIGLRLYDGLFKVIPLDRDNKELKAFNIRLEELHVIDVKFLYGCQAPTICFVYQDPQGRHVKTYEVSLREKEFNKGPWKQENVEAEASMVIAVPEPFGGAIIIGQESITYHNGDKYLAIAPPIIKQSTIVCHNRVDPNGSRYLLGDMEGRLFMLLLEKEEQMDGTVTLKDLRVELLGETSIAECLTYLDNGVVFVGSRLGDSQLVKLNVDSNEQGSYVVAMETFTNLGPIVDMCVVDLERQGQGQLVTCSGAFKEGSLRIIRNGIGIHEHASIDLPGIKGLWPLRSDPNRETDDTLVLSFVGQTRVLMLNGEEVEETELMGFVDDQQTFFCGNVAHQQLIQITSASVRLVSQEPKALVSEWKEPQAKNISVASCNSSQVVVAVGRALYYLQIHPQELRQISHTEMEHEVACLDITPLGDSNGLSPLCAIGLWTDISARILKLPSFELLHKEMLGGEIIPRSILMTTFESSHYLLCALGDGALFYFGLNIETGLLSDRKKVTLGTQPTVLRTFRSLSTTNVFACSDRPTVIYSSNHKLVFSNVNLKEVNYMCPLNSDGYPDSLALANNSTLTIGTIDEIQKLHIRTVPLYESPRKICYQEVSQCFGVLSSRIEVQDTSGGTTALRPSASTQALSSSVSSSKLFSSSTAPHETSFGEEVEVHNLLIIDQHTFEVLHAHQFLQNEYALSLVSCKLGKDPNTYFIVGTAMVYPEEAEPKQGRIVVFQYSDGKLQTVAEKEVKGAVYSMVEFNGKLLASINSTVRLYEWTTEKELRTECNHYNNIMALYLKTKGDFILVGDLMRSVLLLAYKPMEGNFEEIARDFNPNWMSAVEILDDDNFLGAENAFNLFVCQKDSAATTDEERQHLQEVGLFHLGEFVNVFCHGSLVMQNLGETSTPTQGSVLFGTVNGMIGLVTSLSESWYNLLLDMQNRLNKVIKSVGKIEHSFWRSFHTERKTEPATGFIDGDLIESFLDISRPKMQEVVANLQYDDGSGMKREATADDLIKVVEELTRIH

`Cc1ccc(NC(=S)NCc2ccc3cc(C4CCC(=O)NC4=O)c(C)nc3c2)cc1Cl` (stereo not drawn) [Compound 2, 1-(3-chloro-4-methylphenyl)-3-((3-(2,6-dioxopiperidin-3-yl)-2-methylquinolin-7-yl)methyl)thiourea] showed an activation at 1 µM [1] of less than 10%, an IC50 (KG-1 cells) of 1000 to 5000 nM and an IC50 (Kelly cells) of 1000 to 5000 nM. It also gave an IC50 (NCI-H929 cells) greater than 5000 nM, an IC50 (Hep3B cells) greater than 5000 nM and an IC50 [2] greater than 5000 nM.
For `Cc1ccc(NC(=O)OCc2ccc3cc(C4CCC(=O)NC4=O)c(C)nc3c2)cc1Cl` (stereo not drawn) [Compound 4, (3-(2,6-dioxopiperidin-3-yl)-2-methylquinolin-7-yl)methyl (3-chloro-4-methylphenyl)carbamate], the activation at 1 µM [1] was less than 10%, the IC50 (KG-1 cells) was no more than 100 nM and the IC50 (Kelly cells) was no more than 100 nM. It also gave an IC50 (NCI-H929 cells) of no more than 100 nM, an IC50 (Hep3B cells) of no more than 100 nM and an IC50 [2] greater than 5000 nM. For the same compound, the “% remaining at 24 hrs” value ([3]; concentration 1 μM) was “a (a≥50%)”, the “t_half [hours]” value ([3]; concentration 1 μM) was “A (A≥15 hrs)” and the “% remaining at 24 hrs” value ([3]; concentration 10 μM) was “b (25%≤b<50%)”. For the same compound, the “t_half [hours]” value ([3]; concentration 10 μM) was “A (A≥15 hrs)”.
For `Cc1ccc(NC(=O)OCc2ccc3nc(C)c(C4CCC(=O)NC4=O)cc3c2)cc1Cl` (stereo not drawn) [Compound 5, (3-(2,6-dioxopiperidin-3-yl)-2-methylquinolin-6-yl)methyl (3-chloro-4-methylphenyl)carbamate], the activation at 1 µM [1] was 10 to 25%, the IC50 (KG-1 cells) was no more than 100 nM and the IC50 (Kelly cells) was no more than 100 nM. The IC50 (NCI-H929 cells) was no more than 100 nM, the IC50 (Hep3B cells) was no more than 100 nM and the IC50 [2] was greater than 5000 nM.
For `Cc1ncc(NC(=O)OCc2ccc3cc(C4CCC(=O)NC4=O)c(C)nc3c2)cc1Cl` (stereo not drawn) [Compound 58, (3-(2,6-dioxopiperidin-3-yl)-2-methylquinolin-7-yl)methyl (5-chloro-6-methylpyridin-3-yl)carbamate], the activation at 1 µM [1] was less than 10%.
In the case of `COc1cnc(NC(=O)OCc2ccc3cc(C4CCC(=O)NC4=O)c(C)nc3c2)cn1` (stereo not drawn) [Compound 59, (3-(2,6-dioxopiperidin-3-yl)-2-methylquinolin-7-yl)methyl (5-methoxypyrazin-2-yl)carbamate], the activation at 1 µM [1] is reported as less than 10%.
For `Cc1nc2cc(CNC(=O)Nc3cc(C(C)(C)C)no3)ccc2cc1N1CCC(=O)NC1=O` [Compound 64, 1-(3-(tert-butyl)isoxazol-5-yl)-3-((3-(2,4-dioxotetrahydropyrimidin-1(2H)-yl)-2-methylquinolin-7-yl)methyl)urea], the activation at 1 µM [1] was less than 10%.
Work on `Cc1nc2ccc(COC(=O)Nc3cc(C(C)(C)C)no3)cc2cc1N1CCC(=O)NC1=O` [Compound 66, (3-(2,4-dioxotetrahydropyrimidin-1(2H)-yl)-2-methylquinolin-6-yl)methyl (3-(tert-butyl)isoxazol-5-yl)carbamate] yielded an activation at 1 µM [1] of 10 to 25%.
Compound `Cc1nc2ccc(CNC(=O)Nc3cc(C(C)(C)C)no3)cc2cc1N1CCC(=O)NC1=O` [Compound 67, 1-(3-(tert-butyl)isoxazol-5-yl)-3-((3-(2,4-dioxotetrahydropyrimidin-1(2H)-yl)-2-methylquinolin-6-yl)methyl)urea] has an activation at 1 µM [1] of 25 to 50%.
`Cc1nc2cc(COC(=O)Nc3cc(C(F)(F)F)n[nH]3)ccc2cc1C1CCC(=O)NC1=O` (stereo not drawn) [Compound 69, (3-(2,6-dioxopiperidin-3-yl)-2-methylquinolin-7-yl)methyl (3-(trifluoromethyl)-1H-pyrazol-5-yl)carbamate] gave an activation at 1 µM [1] of less than 10%.
Compound `Cc1nc2cc(COC(=O)Nc3cc(C(C)(C)C)on3)ccc2cc1C1CCC(=O)NC1=O` (stereo not drawn) [Compound 70, (3-(2,6-dioxopiperidin-3-yl)-2-methylquinolin-7-yl)methyl (5-(tert-butyl)isoxazol-3-yl)carbamate] has an activation at 1 µM [1] of less than 10%.
Compound `Cc1nc2cc(COC(=O)Nc3cc(C(F)(F)F)no3)ccc2cc1C1CCC(=O)NC1=O` (stereo not drawn) [Compound 71, (3-(2,6-dioxopiperidin-3-yl)-2-methylquinolin-7-yl)methyl (3-(trifluoromethyl)isoxazol-5-yl)carbamate] has an activation at 1 µM [1] of less than 10%.
`Cc1nc2cc(COC(=O)Nc3cc(C(C)(C)C)no3)ccc2cc1N1CCC(=O)NC1=O` [Compound 72, (3-(2,4-dioxotetrahydropyrimidin-1(2H)-yl)-2-methylquinolin-7-yl)methyl (3-(tert-butyl)isoxazol-5-yl)carbamate] showed an activation at 1 µM [1] of less than 10%.
In the case of `Cc1ccc(NC(=O)OCc2ccc3cc(C4(F)CCC(=O)NC4=O)c(C)nc3c2)cc1Cl` (stereo not drawn) [Compound 74, (3-(3-fluoro-2,6-dioxopiperidin-3-yl)-2-methylquinolin-7-yl)methyl (3-chloro-4-methylphenyl)carbamate], the activation at 1 µM [1] is reported as less than 10%.
In the case of `Cc1nc2cc(COC(=O)Nc3cc(C(C)(C)C)n[nH]3)ccc2cc1C1CCC(=O)NC1=O` (stereo not drawn) [Compound 75, (3-(2,6-dioxopiperidin-3-yl)-2-methylquinolin-7-yl)methyl (3-(tert-butyl)-1H-pyrazol-5-yl)carbamate], the activation at 1 µM [1] is reported as less than 10%.
With `Cc1nc2cc(COC(=O)Nc3nc(C(C)(C)C)no3)ccc2cc1C1CCC(=O)NC1=O` (stereo not drawn) [Compound 80, (3-(2,6-dioxopiperidin-3-yl)-2-methylquinolin-7-yl)methyl (3-(tert-butyl)-1,2,4-oxadiazol-5-yl)carbamate] the activation at 1 µM [1] was less than 10%.
With `Cc1nc2cc(COC(=O)Nc3cc(C4(C(F)(F)F)CC4)no3)ccc2cc1C1CCC(=O)NC1=O` (stereo not drawn) [Compound 81, (3-(2,6-dioxopiperidin-3-yl)-2-methylquinolin-7-yl)methyl (3-(1-(trifluoromethyl)cyclopropyl)isoxazol-5-yl)carbamate] the activation at 1 µM [1] was less than 10%.
`[2H]C([2H])(OC(=O)Nc1cc(C(C)(C)C)no1)c1ccc2cc(C3CCC(=O)NC3=O)c(C)nc2c1` (stereo not drawn) [Compound 82, (3-(2,6-dioxopiperidin-3-yl)-2-methylquinolin-7-yl)methyl-d2 (3-(tert-butyl)isoxazol-5-yl)carbamate] showed an activation at 1 µM [1] of less than 10%.
